Assay results from US20240116947A1, “PYRIDO OXAZINE DERIVATIVES AS ALK5 INHIBITORS” (CHIESI FARMACEUTICI S.P.A., priority 2020, published 2024).

Each compound was assayed against human ALK5 (Homo sapiens (Human), UniProt P36897) (assay: ADP-GLO Kinases assay, inhibition of ALK5 enzymatic activity). Conditions: Table 4; potency bins; purified recombinant human ALK5, ADP-Glo, 25° C.; read-out: ALK5 IC50.
Format: biochemical
Procedure: The enzymatic activity of compounds of the present invention was monitored measuring the formation of ADP using the ADP-GLO Kinases assay. Following the incubation of the purified enzyme, a substrate and ATP, the produced ADP was converted into ATP, which in turn was converted into light by Ultra-Glo Luciferase. The luminescent signal positively correlated with ADP amount and kinase activity. Briefly, the kinase reaction was performed by incubating 2.6 nM of the purified, commercially available human ALK5 (recombinant TGF β1 N-term GST-tagged, 80-end), a final concentration of TGFβ1 peptide 94.5 μM (Promega, T36-58) and ultra-pure ATP (Promega V915B). […] All reactions/incubations were performed at 25° C. Compound and ALK5 kinase were mixed and incubated for 15 mins. Reactions were initiated by addition of ATP at a final concentration in the assay of 0.83 μM. After an incubation of 150 min, the reaction was stopped, and ADP production detected with ADP-Glo kit according to manufacturer's indications. The assay was performed in 384-well format and was validated using a selection of reference compounds that was tested in 11 point concentration-response curve.

Chain of human ALK5 (P36897 80-503 limits assumed): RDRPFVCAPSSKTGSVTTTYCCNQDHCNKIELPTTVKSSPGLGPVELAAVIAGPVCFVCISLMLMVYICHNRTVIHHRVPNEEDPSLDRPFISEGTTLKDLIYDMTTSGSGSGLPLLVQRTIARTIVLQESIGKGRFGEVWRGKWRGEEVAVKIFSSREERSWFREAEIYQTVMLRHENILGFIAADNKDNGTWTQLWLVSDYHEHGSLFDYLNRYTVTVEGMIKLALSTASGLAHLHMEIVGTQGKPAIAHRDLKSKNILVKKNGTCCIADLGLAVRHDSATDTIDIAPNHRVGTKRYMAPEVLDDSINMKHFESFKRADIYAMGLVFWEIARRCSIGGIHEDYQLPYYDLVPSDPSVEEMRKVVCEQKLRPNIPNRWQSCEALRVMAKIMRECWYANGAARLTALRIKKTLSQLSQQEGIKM

Row | IC50 | Structure (SMILES)
1 | < 1 nM | O=C(CCN1CCN(CCC(=O)Nc2cc(N3CCOc4cnc(-c5cc(Cl)ccc5F)cc43)ccn2)CC1)NCCO [Example 35, 3-{4-[2-({4-[7-(5-chloro-2-fluorophenyl)-1H,2H,3H-pyrido[3,4-b][1,4]oxazin-1-yl]pyridin-2-yl}carbamoyl)ethyl]piperazin-1-yl}-N-(2-hydroxyethyl)propanamide]
2 | < 1 nM | O=C(CCN1CCN(CCN(CCO)CCO)CC1)Nc1cc(N2CCOc3cnc(-c4cc(Cl)ccc4F)cc32)ccn1 [Example 36, 3-(4-{2-[bis(2-hydroxyethyl)amino]ethyl}piperazin-1-yl)-N-{4-[7-(5-chloro-2-fluorophenyl)-1H,2H,3H-pyrido[3,4-b][1,4]oxazin-1-yl]pyridin-2-yl}propanamide]
3 | < 1 nM | NC(=O)CCN1CCN(CCC(=O)Nc2cc(N3CCOc4cnc(-c5cc(Cl)ccc5F)cc43)ccn2)CC1 [Example 37, 3-[4-(2-carbamoylethyl)piperazin-1-yl]-N-{4-[7-(5-chloro-2-fluorophenyl)-1H,2H,3H-pyrido[3,4-b][1,4]oxazin-1-yl]pyridin-2-yl}propanamide]
4 | < 1 nM | CN1CCN(CCC(=O)Nc2cc(N3CCOc4cnc(-c5nc(Cl)ccc5F)cc43)ccn2)CC1 [Example 38, N-{4-[7-(6-chloro-3-fluoropyridin-2-yl)-1H,2H,3H-pyrido[3,4-b][1,4]oxazin-1-yl]pyridin-2-yl}-3-(4-methylpiperazin-1-yl)propanamide]
5 | < 1 nM | CN1CCC(CCC(=O)Nc2cc(N3CCOc4cnc(-c5nc(Cl)ccc5F)cc43)ccn2)CC1 [Example 39, N-{4-[7-(6-chloro-3-fluoropyridin-2-yl)-1H,2H,3H-pyrido[3,4-b][1,4]oxazin-1-yl]pyridin-2-yl}-3-(1-methylpiperidin-4-yl)propanamide]
6 | 5 to 10 nM | COCCC(=O)Nc1cc(N2CCOc3cnc(-c4cc(Cl)ccc4F)cc32)ccn1 [Example 40, N-{4-[7-(5-chloro-2-fluorophenyl)-1H,2H,3H-pyrido[3,4-b][1,4]oxazin-1-yl]pyridin-2-yl}-3-methoxypropanamide]
7 | < 1 nM | CN1CCC(CCC(=O)Nc2cc(N3CCOc4cnc(-c5cc(Cl)ncc5F)cc43)ccn2)CC1 [Example 41, N-{4-[7-(2-chloro-5-fluoropyridin-4-yl)-1H,2H,3H-pyrido[3,4-b][1,4]oxazin-1-yl]pyridin-2-yl}-3-(1-methylpiperidin-4-yl)propanamide]
8 | < 1 nM | CN1CCN(CCC(=O)Nc2cc(N3CCOc4cnc(-c5cc(Cl)ncc5F)cc43)ccn2)CC1 [Example 42, N-{4-[7-(2-chloro-5-fluoropyridin-4-yl)-1H,2H,3H-pyrido[3,4-b][1,4]oxazin-1-yl]pyridin-2-yl}-3-(4-methylpiperazin-1-yl)propanamide]
9 | < 1 nM | CN1CCN(CC(=O)Nc2cc(N3CCOc4cnc(-c5cc(Cl)ccc5F)cc43)ccn2)CC1 [Example 43, N-{4-[7-(5-chloro-2-fluorophenyl)-1H,2H,3H-pyrido[3,4-b][1,4]oxazin-1-yl]pyridin-2-yl}-2-(4-methylpiperazin-1-yl)acetamide]
10 | 1 to 5 nM | CN1CCN(CCC(=O)Nc2cc(N3CCOc4c3cc(-c3cc(Cl)ccc3F)nc4C(=O)O)ccn2)CC1 [Example 44, 7-(5-chloro-2-fluorophenyl)-1-{2-[3-(4-methylpiperazin-1-yl)propanamido]pyridin-4-yl}-1H,2H,3H-pyrido[3,4-b][1,4]oxazine-5-carboxylic acid]
11 | < 1 nM | COC(=O)C1CN(CCC(=O)Nc2cc(N3CCOc4cnc(-c5cc(Cl)ccc5F)cc43)ccn2)CCN1C (stereo not drawn) [Example 45, Methyl 4-[2-({4-[7-(5-chloro-2-fluorophenyl)-1H,2H,3H-pyrido[3,4-b][1,4]oxazin-1-yl]pyridin-2-yl}carbamoyl)ethyl]-1-methylpiperazine-2-carboxylate]
12 | < 1 nM | COC(=O)C1CN(CCC(=O)Nc2cc(N3CCOc4cnc(-c5cc(Cl)ccc5F)cc43)ccn2)CCN1 (stereo not drawn) [Example 46, Methyl 4-[2-({4-[7-(5-chloro-2-fluorophenyl)-1H,2H,3H-pyrido[3,4-b][1,4]oxazin-1-yl]pyridin-2-yl}carbamoyl)ethyl]piperazine-2-carboxylate]
13 | < 1 nM | COC(=O)CC1CN(CCC(=O)Nc2cc(N3CCOc4cnc(-c5cc(Cl)ccc5F)cc43)ccn2)CCN1C (stereo not drawn) [Example 47, Methyl 2-{4-[2-({4-[7-(5-chloro-2-fluorophenyl)-1H,2H,3H-pyrido[3,4-b][1,4]oxazin-1-yl]pyridin-2-yl}carbamoyl)ethyl]-1-methylpiperazin-2-yl}acetate]
14 | < 1 nM | COC(=O)CC1CN(CCC(=O)Nc2cc(N3CCOc4cnc(-c5cc(Cl)ccc5F)cc43)ccn2)CCN1 (stereo not drawn) [Example 48, Methyl 2-{4-[2-({4-[7-(5-chloro-2-fluorophenyl)-1H,2H,3H-pyrido[3,4-b][1,4]oxazin-1-yl]pyridin-2-yl}carbamoyl)ethyl]piperazin-2-yl}acetate]
15 | < 1 nM | COC(=O)C1CN(C)CCN1CCC(=O)Nc1cc(N2CCOc3cnc(-c4cc(Cl)ccc4F)cc32)ccn1 (stereo not drawn) [Example 49, Methyl 1-[2-({4-[7-(5-chloro-2-fluorophenyl)-1H,2H,3H-pyrido[3,4-b][1,4]oxazin-1-yl]pyridin-2-yl}carbamoyl)ethyl]-4-methylpiperazine-2-carboxylate]
16 | < 1 nM | COC(=O)CC1CN(C)CCN1CCC(=O)Nc1cc(N2CCOc3cnc(-c4cc(Cl)ccc4F)cc32)ccn1 (stereo not drawn) [Example 50, Methyl 2-{1-[2-({4-[7-(5-chloro-2-fluorophenyl)-1H,2H,3H-pyrido[3,4-b][1,4]oxazin-1-yl]pyridin-2-yl}carbamoyl)ethyl]-4-methylpiperazin-2-yl}acetate]
17 | < 1 nM | CN1CCN(CCC(=O)Nc2cc(N3CCOc4c3cc(-c3cc(Cl)ccc3F)nc4N)ccn2)CC1 [Example 51, N-{4-[5-amino-7-(5-chloro-2-fluorophenyl)-1H,2H,3H-pyrido[3,4-b][1,4]oxazin-1-yl]pyridin-2-yl}-3-(4-methylpiperazin-1-yl)propanamide]
18 | < 1 nM | CN1CC2CC1CN2CC(=O)Nc1cc(N2CCOc3cnc(-c4cc(Cl)ccc4F)cc32)ccn1 (stereo not drawn) [Example 52, N-{4-[7-(5-chloro-2-fluorophenyl)-1H,2H,3H-pyrido[3,4-b][1,4]oxazin-1-yl]pyridin-2-yl}-2-{5-methyl-2,5-diazabicyclo[2.2.1]heptan-2-yl}acetamide]
19 | < 1 nM | CN1CC2(C1)CN(CC(=O)Nc1cc(N3CCOc4cnc(-c5cc(Cl)ccc5F)cc43)ccn1)C2 [Example 53, N-{4-[7-(5-chloro-2-fluorophenyl)-1H,2H,3H-pyrido[3,4-b][1,4]oxazin-1-yl]pyridin-2-yl}-2-{6-methyl-2,6-diazaspiro[3.3]heptan-2-yl}acetamide]
20 | < 1 nM | CN1CC2(C1)CN(CC(=O)Nc1cc(N3CCOc4cnc(-c5cc(Cl)ccc5F)cc43)ccn1)CCO2 [Example 54, N-{4-[7-(5-chloro-2-fluorophenyl)-1H,2H,3H-pyrido[3,4-b][1,4]oxazin-1-yl]pyridin-2-yl}-2-{2-methyl-5-oxa-2,8-diazaspiro[3.5]nonan-8-yl}acetamide]
21 | < 1 nM | CN1CCN(CCNC(=O)Nc2cc(N3CCOc4cnc(-c5cc(Cl)ccc5F)cc43)ccn2)CC1 [Example 55, 1-(4-(7-(5-chloro-2-fluorophenyl)-2,3-dihydro-1H-pyrido[3,4-b][1,4]oxazin-1-yl)pyridin-2-yl)-3-(2-(4-methylpiperazin-1-yl)ethyl)urea]
22 | 5 to 10 nM | CN1CCN(CCC(=O)Nc2cc(N3CCOc4c3cc(-c3cc(Cl)ccc3F)nc4C(F)(F)F)ccn2)CC1 [Example 56]

Same assay, conditions: Table 5; comparative examples, same in vitro assay; read-out: ALK5 IC50

Row | IC50 | Structure (SMILES)
23 | 9200 nM | Fc1ccc(Cl)cc1-c1cc2c(cn1)OCCN2c1ccn[nH]1 [Example C1, 5-[7-(5-chloro-2-fluorophenyl)-1H,2H,3H-pyrido[3,4-b][1,4]oxazin-1-yl]-1H-pyrazole, reference compound]

Same assay, conditions: statements in running text; read-out: potency (IC50) with respect to inhibitory activity on ALK5

Row | IC50 | Structure (SMILES)
24 | > 9000 nM | Fc1ccc(Cl)cc1-c1cc2c(cn1)OCCN2c1ccn[nH]1 [Example C1, 5-[7-(5-chloro-2-fluorophenyl)-1H,2H,3H-pyrido[3,4-b][1,4]oxazin-1-yl]-1H-pyrazole, reference compound]
